{
  "source": "patent US11141456B2",
  "about": "“Therapeutic compositions including frataxin, lactoferrin, and mitochondrial energy generating enzymes, and uses thereof” (Stealth BioTherapeutics Corp, priority 2014, dated 2021)",
  "origin": "cited, not measured here",
  "test_system": "several mammalian cell types",
  "conditions": "energy-independent manner; cited from earlier work",
  "data": [
    {"substance": "2′,6′-Dmt-D-Arg-Phe-Lys-NH2", "values": [
      {"measurement": "penetration of the plasma membrane", "value": "readily penetrates the plasma membrane"}
    ]}
  ]
}
